The text below walks through data of ChEMBL document CHEMBL5728342, “Heterocyclic compounds for the inhibition of pask” (2021).

The test has as its target PAS domain-containing serine/threonine-protein kinase (Homo sapiens, UniProt Q96RG2). Put plainly: FRET Assay : Table 3: In the presence of kinase and ATP, the Ulight-peptide is phosphorylated and captured by an anti-phospho-substrate antibody, which brings the Eu chelate donor and Ulight acceptor dyes into close proximity. Upon excitation at 340 nm, the Eu chelate transfers its energy to the Ulight dye, resulting in a fluorescent light emission at 665 nm. Titration of kinase at 1 mM ATP was achieved via the following protocol. After making serial three-fold dilutions of PASK (Invitrogen) in reaction buffer across the plate; 5 μl of kinase dilution and 5 μl substrate/ATP mix were added to the wells of the white Optiplate-384 (PerkinElmer). The contents of the plate were and incubated at RT for 1 h. The reaction was stopped by adding 5 μl of stop solution to each test well followed by mixing and incubation at RT for 10 minutes. 5 μl of detection mix (detection antibody diluted in detection buffer) was added; the contents of the plate were mixed and then incubated in the dark for 1 hour at RT. The signal was recorded at TR-FRET mode (665 nm/615 nm). The results were graphed to calculate the EC50.

The structures appear in SMILES notation. A value given as a limit tells only on which side of the number the result lay.

Chain of PAS domain-containing serine/threonine-protein kinase (Q96RG2 whole entry, the tested form may be a part): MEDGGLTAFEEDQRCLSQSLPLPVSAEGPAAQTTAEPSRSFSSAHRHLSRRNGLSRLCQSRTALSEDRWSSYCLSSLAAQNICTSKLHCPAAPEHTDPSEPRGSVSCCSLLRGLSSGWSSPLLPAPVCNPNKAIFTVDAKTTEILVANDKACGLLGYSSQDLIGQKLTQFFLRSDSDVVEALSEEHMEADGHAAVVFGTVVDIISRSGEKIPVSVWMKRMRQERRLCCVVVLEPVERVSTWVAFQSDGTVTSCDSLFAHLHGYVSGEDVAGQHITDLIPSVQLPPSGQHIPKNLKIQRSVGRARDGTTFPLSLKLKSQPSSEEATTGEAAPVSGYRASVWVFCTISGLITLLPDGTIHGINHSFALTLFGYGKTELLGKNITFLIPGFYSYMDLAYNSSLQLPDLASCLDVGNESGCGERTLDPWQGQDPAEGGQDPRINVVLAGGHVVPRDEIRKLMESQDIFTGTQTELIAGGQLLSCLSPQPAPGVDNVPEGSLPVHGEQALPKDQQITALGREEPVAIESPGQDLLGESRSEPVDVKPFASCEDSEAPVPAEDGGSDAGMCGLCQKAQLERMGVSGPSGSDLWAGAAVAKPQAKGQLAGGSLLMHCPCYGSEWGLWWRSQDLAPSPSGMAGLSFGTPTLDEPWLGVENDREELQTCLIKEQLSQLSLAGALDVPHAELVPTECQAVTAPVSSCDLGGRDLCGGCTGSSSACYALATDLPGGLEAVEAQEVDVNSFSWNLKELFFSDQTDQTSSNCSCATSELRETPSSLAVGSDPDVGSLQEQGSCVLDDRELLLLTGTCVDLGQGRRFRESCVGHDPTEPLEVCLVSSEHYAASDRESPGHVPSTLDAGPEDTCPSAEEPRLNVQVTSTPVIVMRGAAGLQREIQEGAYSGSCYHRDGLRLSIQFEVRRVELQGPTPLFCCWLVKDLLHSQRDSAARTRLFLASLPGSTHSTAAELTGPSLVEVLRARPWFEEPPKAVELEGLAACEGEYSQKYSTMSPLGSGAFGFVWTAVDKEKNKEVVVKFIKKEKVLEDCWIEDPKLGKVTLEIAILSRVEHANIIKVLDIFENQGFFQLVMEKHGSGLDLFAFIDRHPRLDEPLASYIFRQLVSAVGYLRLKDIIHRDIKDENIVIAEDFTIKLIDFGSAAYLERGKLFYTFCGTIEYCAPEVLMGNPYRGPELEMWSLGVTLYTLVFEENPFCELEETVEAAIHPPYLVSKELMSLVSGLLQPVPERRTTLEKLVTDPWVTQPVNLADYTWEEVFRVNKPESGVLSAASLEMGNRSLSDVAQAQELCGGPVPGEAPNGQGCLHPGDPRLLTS

On to `Nc1nn2c(c1-c1ccccn1)CC(c1ccc3c(c1)OC(F)(F)O3)=CC2=O`, for which the IC50 was less than 10 µM.
